Laboratory results published in patent US20260199305A1, “LONG-ACTING ORAL PHARMACEUTICAL COMPRISING HYPOXIA-INDUCIBLE FACTOR PROLYL HYDROLASE INHIBITOR AND USE THEREOF” (Kind Pharmaceutical, priority 2023, published 2026).
Read-outs that look alike come from different tables or passages of the source.

Assays:
[1] = Phase 1 single-dose and multiple-dose pharmacokinetics in healthy volunteers; assay type: in vivo, Humans; details: for half-life / Tmax: human, oral; for Tmax: read-out: median Tmax
Procedure: In a Phase 1, randomized, double-blind, placebo-controlled, single-dose and multiple-dose clinical study, a total of 46 healthy volunteers were assigned to one of six dose groups (1 mg, 4 mg, 10 mg, 20 mg, 30 mg, 50 mg) in a single-dose phase. In each dose group, 2 volunteers received a matching placebo. In the 1 mg dose group, 4 volunteers received a single dose of Comp-1 and in the remaining dose groups, 6 volunteers each received a single dose of Comp-1. Blood samples were collected from volunteers within 1 hour before dosing and at 0.5, 1, 1.5, 2, 3, 4, 5, 6, 7, 8, 10, 12, 24, 48, and 72 hours after dosing for pharmacokinetic (PK) analysis.
A total of 32 healthy volunteers were assigned to one of four dose groups (4 mg, 10 mg, 20 mg, 30 mg) in a multiple-dose phase. In each dose group, 2 volunteers received a matching placebo and 6 volunteers received Comp-1 once daily for 10 consecutive days. Blood samples for PK analysis were collected from volunteers within 1 hour before dosing and at 0.5, 1, 1.5, 2, 3, 4, 5, 6, 7, 8, 10, 12, and 24 hours after dosing on the first dosing day (i.e., Day 1), as well as within 1 hour before dosing and at 0.5, 1, 2, 3, 4, 5, 6, 7, 8, 10, 12, 24, 48, and 72 hours after dosing on Days 6, 7, 8, and 10.

HIF PHD-2 = target: T1, HIF PHD-2 (Homo sapiens, UniProt Q9GZT9); test: Inhibitory effect on HIF PHD-2 (HIF-1α peptide hydroxylation, HPLC); assay type: biochemical; details: PHD2 enzyme, 30° C., 2 hours, read-out: IC50 against HIF PHD-2
T1 construct: purchased Active Motif
Procedure: Stock solutions of the following reagents were prepared: HEPES buffer (pH 7.4, 50 mM), HIF-1α peptide (sequence: DLDLEMLAPYIPMDDDFQL; Genscript) solution in DMSO/HEPES (0.5 mM; preparation method: first prepare a 20 mM solution of this peptide in DMSO, then dilute it 40-fold with the HEPES buffer), ascorbic acid solution (10 mM), FeSO4 in hydrochloric acid solution (0.1 mM FeSO4, 10 μM HCl), 2-oxoglutaric acid solution (2-OG: 1 mM), EDTA solution (pH 8.0; 0.5 M), and eight concentrations of Comp-1/DMSO solutions (concentrations: 4000 μM, 1333 μM, 444.4 μM, 148.1 μM, 49.4 μM, 16.5 μM, 5.5 μM, and 1.82 μM). The following reagents were added to nine Eppendorf tubes: 50 μL HEPES solution, 10 μL ascorbic acid solution, 10 μL FeSO4 in HCl solution, 10 μL 2-OG solution, 10 μL HIF-1α peptide solution; then 5 μL of each of the eight Comp-1/DMSO solutions and 5 μL of DMSO were added separately; finally, 5 μL of PHD2 enzyme (Active Motif; concentration: 0.2 μg/μL) was added to each tube. Each of the resulting reaction systems was incubated at 30° C. in dark for 2 hours. Finally, 10 μL of EDTA solution was added to each tube to terminate the reaction. […] The concentrations of HIF-peptide and hydroxylated peptide were quantified using a UV absorption detector to calculate their ratio. The IC50 was calculated using GraphPad Prism 6.0 software.

[2] = after 10 consecutive days of dosing
[3] = multiple-dose phase, after the first dose

T1 sequence (Q9GZT9 whole entry): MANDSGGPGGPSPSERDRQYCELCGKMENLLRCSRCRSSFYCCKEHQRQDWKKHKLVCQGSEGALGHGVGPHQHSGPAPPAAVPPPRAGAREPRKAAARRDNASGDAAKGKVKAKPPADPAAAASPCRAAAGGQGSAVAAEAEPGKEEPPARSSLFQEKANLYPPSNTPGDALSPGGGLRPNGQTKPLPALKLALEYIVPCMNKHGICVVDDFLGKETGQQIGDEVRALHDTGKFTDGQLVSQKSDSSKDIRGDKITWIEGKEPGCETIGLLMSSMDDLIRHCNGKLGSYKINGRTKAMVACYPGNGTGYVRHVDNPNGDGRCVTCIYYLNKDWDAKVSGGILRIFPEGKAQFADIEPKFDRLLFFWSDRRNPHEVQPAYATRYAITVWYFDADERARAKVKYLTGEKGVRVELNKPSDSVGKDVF

**Q.** For `O=C(O)CNC(=O)C1=C(O)C2(CCCC2)n2c(ccc2-c2ccccc2)C1=O` [Comp-1, (6′-hydroxy-8′-oxo-3′-phenyl-8′H-spiro[cyclopentane-1,5′-indolizine]-7′-carbonyl)glycine], which “exposure (Css,max, AUC0-t, AUC0-t, and AUC0-inf)” value [1, 2] is on record?
**A.** Its value is “increased in a dose-proportional manner”.

**Q.** And the “mean clearance (CL/F)” value [1, 2]?
**A.** The value was “no dose-related trend”.

**Q.** What about the half-life ([1]; blood, after 10 consecutive days of once daily dosing, 4-30 mg, read-out: mean elimination half-life) of the same compound?
**A.** The half-life was 12.4 to 15.8 h.

**Q.** And the Tmax ([1]; blood, after 10 consecutive days of once daily dosing, 4-30 mg)?
**A.** The Tmax was 3 to 4 h.

**Q.** And the half-life ([1]; blood, multiple-dose phase, first dose on Day 1, 4-30 mg, read-out: mean half-life)?
**A.** Its half-life is 10.1 to 19.4 h.

**Q.** And the Tmax ([1]; blood, multiple-dose phase, first dose on Day 1, 4-30 mg)?
**A.** Its Tmax is 2 to 3 h.

**Q.** And the half-life ([1]; in vivo, single-dose phase, 1-50 mg, healthy volunteers, read-out: mean elimination half-life (t½))?
**A.** Its half-life is 13.1 to 19.7 h.

**Q.** What about the Tmax ([1]; in vivo, single-dose phase, 1-50 mg, healthy volunteers) of the same compound?
**A.** The Tmax was 3 to 4.5 h.

**Q.** And the CLF [1, 3]?
**A.** The CLF was “no apparent trend with dose”.

**Q.** What about the “exposure (Cmax, AUC0-t, and AUC0-inf)” value [1, 3] of the same compound?
**A.** The value was “increased with dose”.

**Q.** And the “exposure (Cmax, AUC0-t, and AUC0-inf)” value ([1]; single-dose phase)?
**A.** The value was “increased in a dose-proportional manner”.

**Q.** And the “mean clearance (CL/F)” value ([1]; single-dose phase)?
**A.** Its value is “no dose-related trend”.

**Q.** And the IC50 (HIF PHD-2)?
**A.** Its IC50 is 2360 nM.
